Test results published in ChEMBL document CHEMBL4390697, “Ginnalin B induces differentiation markers and modulates the proliferation/differentiation balance via the upregulation of NOTCH1 in human epidermal keratinocytes” (Bioorg Med Chem, 2019).
Calls of active or inactive are those of the source. No cut-off for these calls is given here.

Legend:
[1] = system: Zone of skin; test: Induction of keratinocyte differentiation in human EPI-212 EpiDerm skin model assessed as increase in filaggrin expression at 100 uM incubated for 7 days by DAB based immunohistochemical staining analysis (Rvb= 20%); type: functional
[2] = (§1) Induction of keratin-10 expression in human PHK160b cells at 50 uM incubated for 48 hrs by quantitative RT-PCR analysis relative to untreated control; type: functional
[3] = species: Homo sapiens; test: Induction of keratin-1 expression in human PHK160b cells incubated for 48 hrs by quantitative RT-PCR analysis relative to untreated control; type: functional, cell-based
[4] = Cytotoxicity against human PHK160b cells assessed as reduction in cell viability at 10 to 1000 uM incubated for 48 hrs by LDH release assay; type: cell-based
[5] = species: Homo sapiens; test: Induction of keratin-10 expression in human PHK160b cells incubated for 48 hrs by quantitative RT-PCR analysis relative to untreated control; type: functional, cell-based
[6] = species: Homo sapiens; test: Cell cycle arrest in human PHK160b cells assessed as increase in expression of p21 incubated for 72 hrs by western blot method; type: functional, cell-based
[7] = Cell cycle arrest in human PHK160b cells assessed as increase in expression of p21 at 0 to 100 uM incubated for 72 hrs by RT-PCR method; type: functional
[8] = Cell cycle arrest in human PHK160b cells assessed as increase in expression of NOTCH1 at 100 uM incubated for 72 hrs by RT-PCR method relative to control; type: functional
[9] = Induction of filaggrin expression in human PHK160b cells at 100 uM incubated for 48 hrs by quantitative RT-PCR analysis relative to untreated control; type: functional
[10] = system: Zone of skin; test: Induction of keratinocyte differentiation in human EPI-212 EpiDerm skin model assessed as increase in keratin-10 expression at 100 uM incubated for 7 days by DAB based immunohistochemical staining analysis (Rvb= 35.8%); type: functional
[11] = Cell cycle arrest in human PHK160b cells assessed as accumulation at G2/M phase at 100 uM incubated for 48 hrs by propidium iodide staining-based flow cytometry; type: functional
[12] = Cell cycle arrest in human PHK160b cells assessed as accumulation at G0/G1 phase at 100 uM incubated for 48 hrs by propidium iodide staining-based flow cytometry; type: functional
[13] = species: Homo sapiens; test: Cell cycle arrest in human PHK160b cells assessed as decrease in expression of cyclin E incubated for 72 hrs by western blot method; type: functional, cell-based
[14] = Induction of keratin-1 expression in human PHK160b cells at 100 uM incubated for 48 hrs by quantitative RT-PCR analysis relative to untreated control; type: functional
[15] = Induction of keratin-10 expression in human PHK160b cells at 100 uM incubated for 48 hrs by quantitative RT-PCR analysis relative to untreated control; type: functional
[16] = Cytotoxicity against human PHK160b cells assessed as reduction in cell viability at 100 uM incubated for 24 hrs by MTT assay; type: cell-based
[17] = Induction of apoptosis in human PHK160b cells assessed as induction of multiple fragmented segregated bodies at 100 uM incubated for 48 hrs Hoechst 33,342 staining based fluorescent microscopy; type: cell-based
[18] = species: Homo sapiens; test: Induction of filaggrin expression in human PHK160b cells incubated for 48 hrs by quantitative RT-PCR analysis relative to untreated control; type: functional, cell-based
[19] = Cytotoxicity against human PHK160b cells assessed as reduction in cell growth at 100 uM incubated for 24 to 96 hrs by MTT assay; type: cell-based
[20] = species: Homo sapiens; test: Cell cycle arrest in human PHK160b cells assessed as increase in expression of NOTCH 1 at 50 to 100 uM incubated for 72 hrs by western blot method; type: functional, cell-based
[21] = species: Homo sapiens; test: Cell cycle arrest in human PHK160b cells assessed as decrease in expression of cyclin D1 incubated for 72 hrs by western blot method; type: functional, cell-based
[22] = Cell cycle arrest in human PHK160b cells assessed as accumulation at G2/M phase at 50 uM incubated for 48 hrs by propidium iodide staining-based flow cytometry; type: functional
[23] = Cytotoxicity against human PHK160b cells assessed as reduction in cell viability incubated for 48 hrs by LDH release assay; type: cell-based
[24] = Cell cycle arrest in human PHK160b cells assessed as accumulation at G0/G1 phase at 50 uM incubated for 48 hrs by propidium iodide staining-based flow cytometry; type: functional
[25] = species: Homo sapiens; test: as §1; type: functional
[26] = Inhibition of keratin-10 expression in human PHK160b cells at 50 uM incubated for 48 hrs by quantitative RT-PCR analysis relative to untreated control; type: functional
[27] = Cytotoxicity against human PHK160b cells assessed as reduction in cell growth at 100 uM incubated up to 96 hrs by MTT assay; type: cell-based

**Q.** Which Activity [1] does the source give for O=C(OC[C@H]1OC[C@H](O)[C@@H](O)[C@@H]1O)c1cc(O)c(O)c(O)c1 [GINNALIN B] here?
**A.** 56.6%

**Q.** What about the “fold change (FC)” value [2] of the same compound?
**A.** 1.9

**Q.** And the Activity [3]?
**A.** Dose-dependent effect

**Q.** What about the Activity [4] of the same compound?
**A.** Non-Toxic

**Q.** What about the Activity [5] of the same compound?
**A.** Dose-dependent effect

**Q.** And the Activity [6]?
**A.** Dose-dependent effect

**Q.** What about the “fold change (FC)” value [7] of the same compound?
**A.** 1.4

**Q.** What about the “fold change (FC)” value [8] of the same compound?
**A.** 1.9

**Q.** What about the “fold change (FC)” value [9] of the same compound?
**A.** 5.2

**Q.** What about the Activity [10] of the same compound?
**A.** 42.4%

**Q.** What about the Activity [11] of the same compound?
**A.** 20%

**Q.** What about the Activity [12] of the same compound?
**A.** 66%

**Q.** What about the Activity [13] of the same compound?
**A.** Dose-dependent effect

**Q.** And the “fold change (FC)” value [14]?
**A.** 2.9

**Q.** What about the “fold change (FC)” value [15] of the same compound?
**A.** 1.7

**Q.** And the Activity [16]?
**A.** Non-Toxic

**Q.** And the Activity [17]?
**A.** Non-Toxic

**Q.** And the Activity [18]?
**A.** Dose-dependent effect

**Q.** And the Activity [19]?
**A.** Toxic

**Q.** What about the Activity [20] of the same compound?
**A.** Active

**Q.** And the Activity [21]?
**A.** Dose-dependent effect

**Q.** Which “fold change (FC)” value [2] does the source give for O=C(O[C@H]1[C@H](O)[C@@H](OC(=O)c2cc(O)c(O)c(O)c2)CO[C@@H]1CO)c1cc(O)c(O)c(O)c1 [MAPLEXIN D] here?
**A.** 2.2

**Q.** Which Activity [22] does the source give for COc1cc2c(c(OC)c1OC)-c1ccc(OC)c(=O)cc1[C@@H](NC(C)=O)CC2 [COLCHICINE] here?
**A.** 74.6%

**Q.** What about the Activity [23] of the same compound?
**A.** Dose-dependent effect

**Q.** What about the Activity [24] of the same compound?
**A.** 18%

**Q.** And the Activity [17]?
**A.** Toxic

**Q.** With COc1cc(C(=O)OC[C@H]2OC[C@H](O)[C@@H](O)[C@@H]2O)cc(OC)c1OC as the compound, how does the Activity [25] read?
**A.** inactive

**Q.** Which Activity [25] does the source give for O=C(O[C@H]1[C@H](O)[C@@H](O)CO[C@@H]1CO)c1cc(O)c(O)c(O)c1 here?
**A.** Active

**Q.** Which Activity [25] does the source give for O=C(OC[C@H]1OC[C@H](O)[C@@H](O)[C@@H]1O)c1ccccc1 here?
**A.** inactive

**Q.** For O=C(OC[C@H]1OC[C@H](O)[C@@H](O)[C@@H]1OC(=O)c1cc(O)c(O)c(O)c1)c1cc(O)c(O)c(O)c1, which “fold change (FC)” value [2] is on record?
**A.** 2.18

**Q.** Which Activity [25] does the source give for O=C(O[C@H]1[C@H](O)[C@@H](CO)OC[C@@H]1O)c1cc(O)c(O)c(O)c1 here?
**A.** Active

**Q.** For O=C(O[C@H]1CO[C@H](CO)[C@@H](O)[C@@H]1O)c1cc(O)c(O)c(O)c1, which Activity [25] is on record?
**A.** Active

**Q.** Which “fold change (FC)” value [26] does the source give for O=C(OC[C@H]1OC[C@H](OC(=O)c2cc(O)c(O)c(O)c2)[C@@H](OC(=O)c2cc(O)c(O)c(O)c2)[C@@H]1OC(=O)c1cc(O)c(O)c(O)c1)c1cc(O)c(O)c(O)c1 here?
**A.** 0.64

**Q.** For OC[C@H]1OC[C@H](O)[C@@H](O)[C@@H]1O [1,5-Anhydrosorbitol], which Activity [25] is on record?
**A.** inactive

**Q.** What about the Activity [27] of the same compound?
**A.** Non-Toxic
